Data from US7776572B2, “Method for reducing loss of enzyme activity during storage” (Corning Incorporated, priority 1996, dated 2010).
Marks after values point to notes of the source that are not given here.

What was measured:
Fetal Bovine Serum (FBS) = assay: Polymer blends molded into petri dishes, FBS protein binding by colloidal gold
Method: (§3) Low binding non-ionic surfactant molecules were blended at 5% (except as noted in Table 13) into a base polymer using a twin screw extruder, then injection molded into the shape of 35 mm petri dishes. Proteins tested were BSA and Fetal Bovine Serum (FBS). Protein binding was determined using a colloidal gold staining procedure as described above. In the case of the polypropylene and EVA blends, a silver enhancer was used (Sigma Chem. Co., St, Louis, Mo., Kit #SE-100).

HRP-Goat A'Mouse IgG = assay: Enzymatic determination of protein binding to coated medium binding polystyrene plate; settings: coated medium binding PS; versus uncoated high binding polystyrene plate; absorbance 405 nm
Method: The surfactants were coated onto a medium binding polystyrene plate (Corning Costar No. 2587) as described in Material and Methods. A medium binding polystyrene plate (Corning Costar No. 2587) and a high binding polystyrene plate (Corning Costar No. 2581) were used as controls.
(a) HRP-Goat A'Mouse IgG: Kirkegaard & Perry Laboratories, Inc. Catalog No. 074-1806. Stock solution: 0.5 mg/ml; working concentration: 0.04 μg/ml. The working concentration was obtained by adding 11 μl of the stock solution per 25 mls of PBS pH 7.4 to produce a work stock (WS), and then diluting 1:6 (i.e., 10 mls WS+50 mls PBS pH 7.4).
(1) 100 μl-well of HRP-Goat A'Mouse IgG at a concentration of 0.04 μg/ml were added to the test wells and incubated for 1 hour at room temperature.
(2) The wells were then washed 5 times with the 1M wash solution. Each wash include a 5 minute soak followed by decanting.
(3) 100 μl/well of substrate (30 mls ABTS+30 mls H2O2) were added to the test wells and incubated for 15 minutes at room temperature in the dark.
(4) 100 μl/well of stopping solution (1% SDS) were added to the test wells.
(5) The plates were then shaken and read at 405 nm.
(6) Reduction in binding was determined by comparing the absorbance measured in step (5) with the absorbance measured for a high binding polystyrene plate which had not been treated with a non-ionic surfactant but otherwise subjected to steps (1) to (5).

[1] = tested on: ^125I-IgG (goat anti-mouse); assay: Radiometric determination of IgG binding to surfactant-coated polystyrene microtiter wells
Method: The hydrophobic surfaces used were flat bottom microtiter plates composed of high binding polystyrene (Corning Costar No. 2581) and medium binding polystyrene (Corning Costar No. 2587). Testing was performed with and without gamma radiation sterilization using cobalt 60 (1.5 Mrad).
The surfactants were applied to the test plates as described in Materials and Methods, followed by sterilization where indicated.
Levels of protein binding were determined using a radiolabeled protein, namely, ^125I-IgG (goat anti-mouse) purchased from DuPont/NEN. Unlabeled IgG in sodium carbonate buffer pH 9.2 was spiked with ^125I-IgG so that the final concentration of labeled IgG and cold IgG in the test solution was 10 μg/mL.
Aliquots of 0.1 milliliters of the protein solution were placed in quadruplicate in the wells of 8-well strips removed from the test microtiter plates. The wells were incubated overnight at 4° C. with shaking. The supernatants were removed from the wells, followed by three washes with 0.2 mL of PBS. The wells were then dried and individually counted to determine “total” IgG binding. After determining “total” binding, the wells were incubated for two hours in 0.2 mL of PBS-Tween (0.05%) at room temperature with shaking. The supernatants were removed from the wells followed by three washes with 0.2 mL of PBS. The wells were dried and individually counted to determine “tight” IgG binding.
Untreated high binding and medium binding plates were used as controls. A comparative experiment was also performed in which a BSA protein coating was used in place of a surfactant coating. The BSA was preabsorbed onto the walls of the wells and then washed to remove excess material. Testing was then performed using the radiolabeled IgG solution as described above.
Radiolabel measurements were performed in a double blind study at BioMolecular Assays (Woburn, Mass.). IgG binding values per microwell were converted to ng/cm^2 values using a surface area of 0.94 cm^2 for a 0.1 mL volume.

BSA = assay: Polymer blends molded into petri dishes, BSA binding by colloidal gold
Method: as §3

Horse IgG = assay: Protein binding by colloidal gold staining, coated medium binding polystyrene plates; settings: coated medium binding PS; IgG 10 μg/ml, pH 9.4
Method: Except where indicated, the non-ionic surfactants were applied to the hydrophobic surfaces being tested as a 0.1% (weight/volume) solution in isopropanol. A sufficient amount of coating solution was used to cover the surface being testing with a thin layer of the solution (e.g., 25 μl of the solution per well for a standard 24-well plate). In some cases, the solution was applied to surface by spraying; in others, it was poured onto the surface (into the well). Except where indicated, coated samples were either dried at 70° C. for 30 minutes in an air circulated oven or dried at room temperature overnight to evaporate the isopropanol.
Protein binding was determined in some examples using a colloidal gold straining procedure. In accordance with this procedure, colloidal gold becomes electrostatically attached to bound protein and is detected by measuring absorbance at 550 nanometers. Bio-Rad Laboratories' Colloidal Gold Total Protein Stain was used for this purpose, with absorbance being measured with a Cambridge Technologies Plate Reader (No. 7520).
The surfactants were coated onto medium binding polystyrene plates (Corning Costar No. 2587) as described in Material and Methods.
The plates were incubated with IgG as follows: 0.1 ml of Horse IgG (Pierce Labs) at a working concentration of 10 μg/ml in 0.10M NaHCO3 buffer (pH9.4) were added to each well, incubated 30 minutes on a rocker table, and rinsed with dI H2O. The plates were gold stained overnight (0.3 ml/well), rinsed in dI H2O, air dried, and absorbance was measured at 550 nm.

rat = settings: cited from earlier work
[2] = tested on: BSA protein (Bovine Serum Albumin, Fraction V); assay: BSA binding to coated polystyrene 24-well plates at different pH, colloidal gold stain; settings: for Absorbance (550 nm) pH = 9.2: BSA 10 μg/ml in 0.10 M NaHCO3 buffer; for Absorbance (550 nm) pH = 7.4: BSA 10 μg/ml in 0.10 M PBS; for Absorbance (550 nm) pH = 4.6: BSA 10 μg/ml in 0.10 M acetate buffer
Method: Polystyrene plates having 24 wells (Corning Costar #9447) were coated as described in Materials and Methods.
BSA protein (Bovine Serum Albumin, Fraction V, Sigma) was prepared at 10 μg/ml in 0.10 M acetate buffer (pH=4.6), in 0.10 M PBS (pH=7.4), and in 0.10 M NaHCO3 buffer (pH=9.2). Wells of each coated plate, along with uncoated controls, were aliquoted 0.50 ml each of the protein solutions. The samples were run in triplicate.
The plates were placed on a rocker table for 30 minutes at 23° C. The protein solutions were then emptied from the plates, and the wells were rinsed three times with dl H2O. Thereafter, 1.0 ml of colloidal gold stain was added to each well (see Materials and Methods). The plates were placed on a rocker table overnight, rinsed three times with dI H2O, and air dried. Absorbance at 550 nm was then read using the Cambridge Technologies Plate Reader.

MDCK cells [3] = assay: Cytotoxicity of extracts of coated plates; format: cell-based; settings: media extract of coated plates (37° C., 48 hours), MDCK 72 hours, Gram Crystal Violet
Method: Cytotoxicity experiments were performed using MDCK cells. The non-ionic surfactants tested were Pluronic L-121, L-122, and P-123; Span 80 and 85; and Brij 30, 72 and 93. These molecules were coated onto 24-well plates (Corning Costar #9447) from 0.1% (w/v) in isopropanol. Untreated polystyrene and normal tissue culture treated polystyrene (Corning Costar #25820) 24-well plates were used as controls. All plates were incubated at 37° C. for 48 hours with 2 ml/well of complete DMEM media containing 10% Fetal Bovine Serum (FBS). This incubation was performed in order to extract any potentially toxic compounds from the coated surface into the cell growth serum. The FBS solutions were then transferred to tissue culture treated polystyrene and each well was inoculated with ≈2×10^4 cells/well of MDCK cells, and then incubated at 37° C. for 72 hours in a 5% CO2 atmosphere. Cells were then stained with Gram Crystal Violet.

bound protein = assay: Colloidal gold staining of bound protein after MDCK culture in media containing 5% FBS, visual; settings: colloidal gold after cell culture, visual observation
Method: (§1) The procedures used were as follows. Polystyrene 24-well plates were coated with the non-ionic surfactants listed in Table 5 in accordance with the procedures described in Materials and Methods. Uncoated plates were used as a control. For comparison, plates with a covalently attached acrylamide coating (Corning Costar Catalog #2500) and with a stearic acid coating were also tested. The stearic acid coating was applied in the same manner as the non-ionic surfactants again using a 0.1% (w/v) solution.
(§2) The plates were gamma sterilized at 1.5 Mrad and then inoculated with 5.6×10^4 MDCK […] per well in 1 ml of complete media containing 5% FBS (Fetal Bovine Serum). Incubation was carried out at 37° C. in a 5% CO2 atmosphere for two days. The plates were fixed and stained, and cell attachment was noted. Following this, the wells were stained using the colloidal gold technique to detect bound protein. Only visual observations were made.

MDCK cells [4] = assay: MDCK cell attachment to coated polystyrene 24-well plates; format: cell-based; settings: coated PS 24-well, gamma sterilized, media with 5% FBS, two days, visual
Method: as §1, §2
Experiments were also performed with cells suspended in serum. The cells used in these experiments were MDCK cells. The surfactants used were the same as used in Table 5. Again, reduced binding of the cells to surfaces treated with a non-ionic surfactant was observed.

IgG = assay: Coating durability using water washes, IgG binding by colloidal gold
Method: Polystyrene plates having 24 wells (Corning Costar #9447) were coated with these surfactants as described in Materials and Methods. Durability was tested by adding dI H2O to the wells of a test plate (3.0 mls/well), following which the plate was placed on a rocker table. […] The protein solution was incubated with the plate on a rocker table for 30 minutes at 23° C., following which the plate was H2O rinse 3× (3 mls each time). The colloidal gold staining procedure described above was used to reveal bound protein. The staining comprised an overnight incubation on a rocker table at 23° C., a dI H2O rinse, drying at room temperature, and reading at 550 nm.

[5] = blended at 5% into polypropylene, silver enhancer

CCCCCCCCCCCCCCCCCCOCCOCCO [PEO(2) STEARYL ETHER]
Bound Protein Absorbance (550 nm) FBS (Fetal Bovine Serum (FBS); [5]): 0.000
Bound Protein Absorbance (550 nm) FBS (Fetal Bovine Serum (FBS); blended at 5% into polystyrene): 0.009
% Reduction in Protein Binding (HRP-Goat A'Mouse IgG): 97.9%
Total IgG binding, Non-Sterilized ([1]; coated polystyrene wells, not sterilized, after three PBS washes): 83 ng/cm^2
Total IgG binding, Sterilized ([1]; gamma sterilized (1.5 Mrad), after three PBS washes): 36 ng/cm^2
Tight IgG binding, Sterilized ([1]; gamma sterilized (1.5 Mrad), after two hours in PBS-Tween (0.05%)): 17 ng/cm^2
Tight IgG binding, Non-Sterilized ([1]; not sterilized, after two hours in PBS-Tween (0.05%)): 28 ng/cm^2
BSA or FBS protein binding (BSA; blend in polypropylene or EVA): no detectable
Bound Protein Absorbance (550 nm) BSA (BSA; [5]): 0.000
Bound Protein Absorbance (550 nm) BSA (BSA; blended at 5% into polystyrene): 0.008
IgG Protein Binding Absorbance (550 nm) (Horse IgG): 0.00
LD50 (rat): >25 grams/Kg
Absorbance (550 nm) pH = 9.2 [2]: 0.00
Absorbance (550 nm) pH = 7.4 [2]: 0.00
Absorbance (550 nm) pH = 4.6 [2]: 0.00
cell growth and morphology (MDCK cells [3]): confluent cell growth with normal cell morphology

SORBITOL MONO-PALMITATE
% Reduction in Protein Binding (HRP-Goat A'Mouse IgG): 88.9* %
IgG Protein Binding Absorbance (550 nm) (Horse IgG): 0.00
Visual Color Upon Protein Staining (bound protein): None
Absorbance (550 nm) pH = 9.2 [2]: 0.00
Absorbance (550 nm) pH = 7.4 [2]: 0.00
Absorbance (550 nm) pH = 4.6 [2]: 0.00
MDCK Attachment (MDCK cells [4]): None
Absorbance (550 nm) Initial (IgG; coated polystyrene, no water wash): 0.00
Absorbance (550 nm) 1 Time 1 hr 23° C. (IgG; dI H2O wash 1 time, 1 hr, 23° C.): 0.00
Absorbance (550 nm) 1 Time 24 hr 23° C. (IgG; dI H2O wash 1 time, 24 hr, 23° C.): 0.00
Absorbance (550 nm) 1 Time 24 hr 37° C. (IgG; dI H2O wash 1 time, 24 hr, 37° C.): 0.00
Absorbance (550 nm) 1 Time 24 hr 70° C. (IgG; dI H2O wash 1 time, 24 hr, 70° C.): 0.00
Absorbance (550 nm) 6 Times 30 min each 23° C. (IgG; dI H2O wash 6 times, 30 min each, 23° C.): 0.02-0.06
